Assay results as given in a melting point compilation (Tetko et al.; mined from patent text by program, amines drawn as free bases though some values may be those of a salt).

Compound	melting point
Nc1ncc2cc(-c3ccccc3)c(O)nc2n1	390 to 395 °C
COc1c(N2CCC(n3nncc3C)C2)c(F)cc2c(=O)c(C(=O)O)cn(C3CC3)c12 (stereo unspecified)	226 to 228 °C
Clc1cc2c(c(-c3nc4ncccc4o3)c1)CCCC2	130 to 132 °C
O=C(NCc1ccccc1)c1[nH]c2ccc(Cl)cc2c1S(=O)(=O)c1ccccc1	249 to 251 °C
COC(=O)Nc1nc2cc(S(=O)CC(C)C)ccc2[nH]1 (stereo unspecified)	198 to 201 °C
COc1cc2c3c(cccc3c1)C(=O)N(O)C2=O	236 to 239 °C
COC(=O)CC(C#N)c1cccc2ccc(OC)cc12 (stereo unspecified)	113 to 114 °C
CC(C)N1CCC(Nc2cccnc2)CC1	101 °C
CC(C)Oc1cccc(CC(=O)N2CCC(CCN3CCC(C(=O)c4nc5ccccc5n4Cc4ccc(F)cc4)CC3)(c3ccc4c(c3)OCO4)C2)c1 (stereo unspecified)	73 to 76 °C
CC(C)S(=O)(=O)NCC(C)(F)c1ccc(-c2ccc(CC#N)cc2)cc1 (stereo unspecified)	155 to 157 °C
COc1cc(OC)c2c(=O)cc(-c3ccccc3Cl)oc2c1C1CCN(C)C1CO (stereo unspecified)	91 to 93 °C
CC(=O)SCC(CC(N)=O)C(=O)O (stereo unspecified)	110 to 111 °C
CNC(=S)NCCSCc1c[nH]cn1	96 to 98 °C
O=C(c1ccc(F)cc1)c1cccc(C#Cc2ccc(F)cc2)c1	127 to 128 °C
O=C(Nc1ccccc1)O[C@H]1CSC(c2ccccc2)=N[C@@H]1c1ccccc1 (racemic)	159 °C
COc1cc(CC(=O)NCCCc2ccc(C)c(C)c2)ccc1OCCBr	105 °C
CNC(=O)Nc1n[nH]c(-c2ccncc2)c1-c1ccc(F)cc1	212 to 213 °C
C=CCC(C(=O)OC)(C(=O)OC)C(Cc1ccccc1N)c1ccc(OC)cc1 (stereo unspecified)	117 to 118 °C
CC=C1CCC2C3=CC=C4CC(O[Si](C)(C)C(C)(C)C(C)C)CCC4(C)C3CCC12C (stereo unspecified)	94 to 97 °C
CN(C)c1nc(NCc2ccc(NC(=O)c3ccc(F)cc3)cc2)c2ccc(C#N)cc2n1	150 °C
CSc1nc(-c2ccc(O)cc2)n(C)n1	216 to 220 °C
CNC(=O)CN1CCc2cc(Nc3ncc(Cl)c(Nc4cc(C(N)=O)ccc4OC)n3)c(OC)cc2CC1	225 to 236 °C
CC1(C)OCCC(=NO)c2ccccc2NC1=O	205 to 206 °C
CC(C)(C)OC(=O)C=Cc1cc2ccccc2o1	56 to 57 °C
CCNC1=C(c2ccc(OC)cc2)C(=O)c2cc(OC)ccc21	88 to 90 °C
Cc1[nH]cnc1C=C1CC2CCCn3c2c(c2ccccc23)C1=O (stereo unspecified)	289 to 290 °C

Compound	melting point
Cc1cc(Nc2cnc(C(=O)N(C)CCO)c(Nc3ccc(Cl)cc3)n2)n[nH]1	191 to 192 °C
N#Cc1ccc(-c2ccc(C(=O)NCCCCN3CCC(c4ccc5ccccc5c4O)CC3)cc2)cc1	135 to 140 °C
CC(C)[C@H](NC(=O)OCc1ccccn1)C(=O)O	116 to 118 °C
CCOC(=O)CC(C)(O)c1ccc(-c2ccc(F)cc2F)cc1 (stereo unspecified)	96 to 97 °C
N#CCc1cc2cc(Br)ccc2s1	94 to 96 °C
COc1cc(N2CCN(C[C@H](C)O)CC2)ccc1Nc1ncc2ccc(-c3cc(Cl)ccc3OC)n2n1	163 to 166 °C
Cn1cnc2nc(-c3cccc4ccccc34)nn2c1=S	278 to 279 °C
COc1ccc(C(=O)c2ccc(=O)[nH]c2C)cc1	228 to 230 °C
O=C(O)c1cc(Br)cnc1O	245 °C
O=C(Nc1nc(C(F)(F)F)c(Cl)s1)c1ccc(Cl)c([N+](=O)[O-])c1	183 to 184 °C
Cc1ccccc1-c1nc(-c2cccc(Cl)c2)nn1C	77 to 78 °C
N#Cc1cc(-c2ccc(Cl)cc2)cnc1Cl	185 to 187 °C
CCOC(=O)Cc1ccc(Cc2nc3n(-c4c(Cl)cccc4Cl)[nH]c(C(C)C)c-3c(=O)n2)cc1	168 to 169 °C
CC(CCn1ccnc1)N=C1c2cccc3cccc(c23)N1C(c1ccccc1)c1ccccc1 (stereo unspecified)	55 to 64 °C
COc1cc2ncnc(N3CCC(C(C)CN4C(C)=CC(C)=NS4(=O)=O)CC3)c2cc1OC (stereo unspecified)	169 to 172 °C
CN(C(=O)c1nsc2ccc(-n3c(=O)cc(C(F)(F)F)n(C)c3=O)cc12)S(C)(=O)=O	120 to 122 °C
CC(=O)N1CCc2ccc(C(=O)NO)cc2C1	177 to 181 °C
CCCC(CCCCCN1C(=O)c2ccccc2C1=O)(C(=O)OCC)C(=O)OCC	51 to 52 °C
COC(=O)c1cc(C(=O)OC)cc(-c2cc(C(F)(F)F)cc(C(F)(F)F)c2)c1	151 °C
COc1ccc(S(=O)(=O)Nc2cccc(Cl)c2/C=C/c2ccncc2)cc1	188 to 190 °C
CC(C)(C)c1cc(C(=O)c2ccc[nH]2)cc(C(C)(C)C)c1O	146 °C
OC[C@H]1C2CCC(C2)[C@@H]1CO	58 °C
C/C(=C\c1ccc(C2(C)OCCO2)cc1)c1ccc2c(c1)C(C)(C)CCC2(C)C	122 to 123 °C
COc1cc(=O)n(-c2cccc(C(F)(F)F)c2)nc1C(C)=O	136 to 138 °C
N#Cc1cccc(-c2cc(-c3cc(C#N)ccc3[N+](=O)[O-])no2)c1	225 to 227 °C
